Experimental data reported in the supplement of paper PMC5908809.

Tests used:
[1] = system: normal NK cells expanded with K562-aAPC; assay: percent inhibition of viability; higher = more inhibition; conditions: 72 h, IL-2 2.5 ng/mL
Description: (§1)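 Drug sensitivity and resistance testing on K562-aAPC-expanded normal NK cells: 5 concentrations (10-fold steps over a 10,000-fold range), 72 h at 37 °C, viability by CellTiter-Glo normalised to DMSO and benzethonium chloride controls; DSS from the fitted curve.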

DERL-7 (IL-2 2.5 ng/mL) [2] = assay: as above; conditions: 72 h
IMC-1 (IL-2 20 ng/mL) [3] = assay: as above; conditions: 72 h
KAI3 (IL-2 2.5 ng/mL) [4] = assay: as above; conditions: 72 h
KHYG-1 (IL-2 2.5 ng/mL) [5] = assay: as above; conditions: 72 h
NK-92 (IL-2 2.5 ng/mL) [6] = assay: as above; conditions: 72 h
NK-YS (IL-2 2.5 ng/mL) [7] = assay: as above; conditions: 72 h
NKL (IL-2 2.5 ng/mL) [8] = assay: as above; conditions: 72 h
SNK-6 (IL-2 2.5 ng/mL) [9] = assay: as above; conditions: 72 h
YT (IL-2 2.5 ng/mL) [10] = assay: as above; conditions: 72 h
[11] = system: normal primary NK cells, pool 1 (3 donors) (IL-2 2.5 ng/mL); assay: as above; conditions: 72 h
[12] = system: normal primary NK cells, pool 1 (3 donors), resting (IL-2 0 ng/mL); assay: as above; conditions: 72 h
[13] = system: normal primary NK cells, pool 2 (3 donors) (IL-2 2.5 ng/mL); assay: as above; conditions: 72 h
[14] = system: normal primary NK cells, pool 3 (3 donors) (IL-2 2.5 ng/mL); assay: as above; conditions: 72 h
[15] = system: normal NK cells expanded with K562-aAPC; assay: drug sensitivity score (DSS) (DSS units); higher = more sensitive; extreme values may be limits of the assay; conditions: 72 h; IL-2 2.5 ng/mL
Description: as §1

DERL-7 (IL-2 2.5 ng/mL) [16] = assay: as above; conditions: 72 h
IMC-1 (IL-2 20 ng/mL) [17] = assay: as above; conditions: 72 h
KAI3 (IL-2 2.5 ng/mL) [18] = assay: as above; conditions: 72 h
KHYG-1 (IL-2 2.5 ng/mL) [19] = assay: as above; conditions: 72 h
NK-92 (IL-2 2.5 ng/mL) [20] = assay: as above; conditions: 72 h
NK-YS (IL-2 2.5 ng/mL) [21] = assay: as above; conditions: 72 h
NKL (IL-2 2.5 ng/mL) [22] = assay: as above; conditions: 72 h
SNK-6 (IL-2 2.5 ng/mL) [23] = assay: as above; conditions: 72 h
YT (IL-2 2.5 ng/mL) [24] = assay: as above; conditions: 72 h
[25] = system: normal primary NK cells, pool 1 (3 donors) (IL-2 2.5 ng/mL); assay: as above; conditions: 72 h
[26] = system: normal primary NK cells, pool 1 (3 donors), resting (IL-2 0 ng/mL); assay: as above; conditions: 72 h
[27] = system: normal primary NK cells, pool 2 (3 donors) (IL-2 2.5 ng/mL); assay: as above; conditions: 72 h
[28] = system: normal primary NK cells, pool 3 (3 donors) (IL-2 2.5 ng/mL); assay: as above; conditions: 72 h

CC[C@@]1(O)C(=O)OCc2c1cc1n(c2=O)Cc2cc3c(CN(C)C)c(O)ccc3nc2-1 [Topotecan] (max concentration tested 10000 nM)
percent inhibition of viability [%]
Conditions	1 nM	10 nM	100 nM	1000 nM	10000 nM
DERL-7 (IL-2 2.5 ng/mL) [2]	-5.89	8.74	69.9	96.4	100
IMC-1 (IL-2 20 ng/mL) [3]	-3.93	2.9	98.1	99.6	100
KAI3 (IL-2 2.5 ng/mL) [4]	-7.96	6.65	82.9	69.8	100
KHYG-1 (IL-2 2.5 ng/mL) [5]	-8.76	-0.99	98	104	104
NK-92 (IL-2 2.5 ng/mL) [6]	-7.93	14.4	98	102	105
NK-YS (IL-2 2.5 ng/mL) [7]	-4.31	2.83	91.2	94.4	104
NKL (IL-2 2.5 ng/mL) [8]	-16.1	0.22	95.8	101	97.5
SNK-6 (IL-2 2.5 ng/mL) [9]	-7.26	-5.12	93	96.6	99.4
YT (IL-2 2.5 ng/mL) [10]	-6.41	1.19	83.4	102	105
[1]	-4.37	0.95	51.7	58.8	99.9
[11]	-0.98	18.9	12.2	42.5	84.4
[12]	-1.44	14.8	4.57	2.84	73.8
[13]	-7.25	5.21	15.2	31.4	85.2
[14]	-3.05	6.63	20.6	31.7	84.1

Conditions	drug sensitivity score
DERL-7 (IL-2 2.5 ng/mL) [16]	26.9
IMC-1 (IL-2 20 ng/mL) [17]	30.6
KAI3 (IL-2 2.5 ng/mL) [18]	28.5
KHYG-1 (IL-2 2.5 ng/mL) [19]	30.1
NK-92 (IL-2 2.5 ng/mL) [20]	32.8
NK-YS (IL-2 2.5 ng/mL) [21]	29.2
NKL (IL-2 2.5 ng/mL) [22]	29.9
SNK-6 (IL-2 2.5 ng/mL) [23]	29
YT (IL-2 2.5 ng/mL) [24]	27.7
[15]	18.3
[25]	10.3
[26]	4.46
[27]	8.28
[28]	9.14

O=C(NOC[C@H](O)CO)c1ccc(F)c(F)c1Nc1ccc(I)cc1F (max concentration tested 1000 nM)
percent inhibition of viability [%]
Conditions	0.1 nM	1 nM	10 nM	100 nM	1000 nM
DERL-7 (IL-2 2.5 ng/mL) [2]	102	5.21	16.2	22.4	38.7
IMC-1 (IL-2 20 ng/mL) [3]	-4.97	0.45	-4.28	-5.8	-9.8
KAI3 (IL-2 2.5 ng/mL) [4]	-0.87	5.85	13.8	15.7	22.6
KHYG-1 (IL-2 2.5 ng/mL) [5]	-3.39	0.89	14.1	40.9	55
NK-92 (IL-2 2.5 ng/mL) [6]	-5.72	-7.22	-10.3	-30.8	-12.8
NK-YS (IL-2 2.5 ng/mL) [7]	-5.52	-3.02	-1.28	2.92	8.84
NKL (IL-2 2.5 ng/mL) [8]	-14.2	-2.12	27.4	41.5	59.1
SNK-6 (IL-2 2.5 ng/mL) [9]	4.76	22	-8.5	-17.1	-28.3
YT (IL-2 2.5 ng/mL) [10]	-2.67	-1.04	-2.4	1.31	4.12
[1]	-1.9	-4.6	-6.15	-9.26	-3.18
[11]	-2.22	-8.03	2.53	15.6	18
[12]	2.14	0.69	1.05	6.05	7
[13]	-3.98	-4.69	-0.06	-5.3	5.01
[14]	-7.16	-7.47	-4.48	-8.83	-4.17

Conditions	drug sensitivity score
DERL-7 (IL-2 2.5 ng/mL) [16]	23.1
IMC-1 (IL-2 20 ng/mL) [17]	0
KAI3 (IL-2 2.5 ng/mL) [18]	3.26
KHYG-1 (IL-2 2.5 ng/mL) [19]	9.09
NK-92 (IL-2 2.5 ng/mL) [20]	0
NK-YS (IL-2 2.5 ng/mL) [21]	0
NKL (IL-2 2.5 ng/mL) [22]	11.1
SNK-6 (IL-2 2.5 ng/mL) [23]	0
YT (IL-2 2.5 ng/mL) [24]	0
[15]	0
[25]	1.95
[26]	0
[27]	0
[28]	0
